Measurements as given in ChEMBL document CHEMBL1140955, “Synthesis and in vitro biological evaluation of valine-containing prodrugs derived from clinically used HIV-protease inhibitors” (Eur J Med Chem, 2008).

Experiments:
[1] = test system: Human immunodeficiency virus 1; experiment: Antiviral activity against HIV1 LAI infected in human CEM-SS cells assessed as reverse transcriptase activity after 5 days by MTT assay; assay type: functional, organism-based; details: Human immunodeficiency virus 1, LAI, 120 h
[2] = test system: Human immunodeficiency virus 1; experiment: Antiviral activity against HIV1 3B infected in human MT4 cells assessed as reverse transcriptase activity after 5 days by MTT assay; details: Human immunodeficiency virus 1, 3B, MT4, 120 h
[3] = Cytotoxicity against human MT4 cells after 4 days by MTT assay; assay type: cell-based
[4] = Cytotoxicity against human CEM-SS cells after 5 days by MTT assay; assay type: cell-based
[5] = Apparent permeability from basolateral to apical side of human Caco-2 cells at 9.4 uM in donor chamber after 3 hrs; assay type: ADME, cell-based; details: read-out: permeability
Caco-2 [6] = experiment: Permeability from apical to basolateral side of human Caco-2 cells assessed as ratio of prodrug concentration in receiver to prodrug concentration in donor at 9.4 uM in donor chamber after 3 hrs; assay type: ADME, cell-based; details: caco-2, 3 h
Caco-2 [7] = experiment: Permeability from basolateral to apical side of human Caco-2 cells assessed as ratio of prodrug concentration in receiver to prodrug concentration in donor at 9.4 uM in donor chamber after 3 hrs; assay type: ADME, cell-based; details: caco-2, 3 h
[8] = Apparent permeability from apical to basolateral side of human Caco-2 cells at 9.4 uM in donor chamber after 3 hrs; assay type: ADME, cell-based; details: read-out: permeability
[9] = Apparent permeability from basolateral to apical side of human Caco-2 cells at 330 uM in donor chamber after 3 hrs; assay type: ADME, cell-based; details: read-out: permeability
[10] = Apparent permeability from apical to basolateral side of human Caco-2 cells at 330 uM in donor chamber after 3 hrs; assay type: ADME, cell-based; details: read-out: permeability
[11] = Chemical stability assessed as hydrolysis half life at pH 7.3; assay type: physicochemical; details: buffer
Caco-2 [12] = experiment: Permeability from apical to basolateral side of human Caco-2 cells assessed as ratio of prodrug concentration in receiver to prodrug concentration in donor at 330 uM in donor chamber after 3 hrs; assay type: ADME, cell-based; details: caco-2, 3 h
[13] = test system: Human immunodeficiency virus 1; experiment: Antiviral activity against HIV1 LAI infected in human CEM-SS cells assessed as ratio of IC50 for prodrug to IC50 for parent compound; assay type: functional
[14] = test system: Human immunodeficiency virus 1; experiment: Antiviral activity against HIV1 3B infected in human MT4 cells assessed as ratio of IC50 for prodrug to IC50 for parent compound
Caco-2 [15] = experiment: Permeability from basolateral to apical side of human Caco-2 cells assessed as ratio of prodrug concentration in receiver to prodrug concentration in donor at 330 uM in donor chamber after 3 hrs; assay type: ADME, cell-based; details: caco-2, 3 h
Caco-2 [16] = experiment: Permeability from basolateral to apical side of human Caco-2 cells assessed as ratio of prodrug concentration in receiver to prodrug concentration in donor at 150 uM in donor chamber after 3 hrs; assay type: ADME, cell-based; details: caco-2, 3 h
[17] = Apparent permeability from basolateral to apical side of human Caco-2 cells at 150 uM in donor chamber after 3 hrs; assay type: ADME, cell-based; details: read-out: permeability
Caco-2 [18] = experiment: Permeability from basolateral to apical side of human Caco-2 cells assessed as ratio of prodrug concentration in receiver to prodrug concentration in donor at 21 uM in donor chamber after 3 hrs; assay type: ADME, cell-based; details: caco-2, 3 h
[19] = Apparent permeability from apical to basolateral side of human Caco-2 cells at 21 uM in donor chamber after 3 hrs; assay type: ADME, cell-based; details: read-out: permeability
Caco-2 [20] = experiment: Permeability from apical to basolateral side of human Caco-2 cells assessed as ratio of prodrug concentration in receiver to prodrug concentration in donor at 21 uM in donor chamber after 3 hrs; assay type: ADME, cell-based; details: caco-2, 3 h
[21] = Apparent permeability from basolateral to apical side of human Caco-2 cells at 21 uM in donor chamber after 3 hrs; assay type: ADME, cell-based; details: read-out: permeability

Q: Which results are given for `CC(C)(C)NC(=O)[C@@H]1C[C@@H]2CCCC[C@@H]2CN1C[C@@H](O)[C@H](Cc1ccccc1)NC(=O)[C@H](CC(N)=O)NC(=O)c1ccc2ccccc2n1`?
A: IC50 [1]: 9 nM; IC50 [2]: 18 nM; CC50 at 96 h [3]: > 10000 nM; CC50 at 120 h [4]: > 10000 nM; Papp B→A at 3 h, 9.4 µM [5]: 1.1 ×10⁻⁶ cm/s; Activity (Caco-2 [6]): 2.6%; Activity (Caco-2 [7]): 10.3%; Papp A→B at 3 h, 9.4 µM [8]: 3.98 ×10⁻⁶ cm/s

Q: Which results are given for `CC(C)[C@H](N)C(=O)O[C@@H]1Cc2ccccc2[C@@H]1NC(=O)[C@H](Cc1ccccc1)C[C@H](O)CN1CCN(Cc2cccnc2)C[C@H]1C(=O)NC(C)(C)C.O=C(O)C(F)(F)F`?
A: IC50 [1]: 17 nM; IC50 [2]: 150 nM; Papp B→A at 3 h, 330 µM [9]: 7.37 ×10⁻⁶ cm/s; CC50 at 96 h [3]: > 100000 nM; Papp A→B at 3 h, 330 µM [10]: 6.44 ×10⁻⁶ cm/s; half-life [11]: 46 h; Activity (Caco-2 [12]): 15.6%; Ratio IC50 [13]: >=1.7; Ratio IC50 [14]: 7; CC50 at 120 h [4]: > 100000 nM; Activity (Caco-2 [15]): 18.1%

Q: For `CC(C)[C@H](N)C(=O)NCCCCCC(=O)O[C@@H](C[C@@H](Cc1ccccc1)C(=O)N[C@H]1c2ccccc2C[C@H]1OC(=O)CCCCCNC(=O)[C@@H](N)C(C)C)CN1CCN(Cc2cccnc2)C[C@H]1C(=O)NC(C)(C)C.O=C(O)C(F)(F)F.O=C(O)C(F)(F)F`, which IC50 [1] is on record?
A: Its IC50 is 640 nM.

Q: What about the IC50 [2] of the same compound?
A: The IC50 was 2950 nM.

Q: And the CC50 at 96 h [3]?
A: Its CC50 at 96 h is 45000 nM.

Q: What about the half-life [11] of the same compound?
A: The half-life was 80 h.

Q: And the “Ratio IC50” value [13]?
A: The value was “>=64”.

Q: What about the “Ratio IC50” value [14] of the same compound?
A: The value was 134.

Q: And the Activity (Caco-2 [16])?
A: The Activity was 2.1%.

Q: And the CC50 at 120 h [4]?
A: Its CC50 at 120 h is > 50000 nM.

Q: What about the Papp B→A at 3 h, 150 µM [17] of the same compound?
A: The Papp B→A at 3 h, 150 µM was 6.26 ×10⁻⁶ cm/s.

Q: Which IC50 [1] does the source give for `CC(C)[C@H](N)C(=O)O[C@H](CN1C[C@H]2CCCC[C@H]2C[C@H]1C(=O)NC(C)(C)C)[C@H](Cc1ccccc1)NC(=O)[C@H](CC(N)=O)NC(=O)c1ccc2ccccc2n1.O=C(O)C(F)(F)F` here?
A: Its IC50 is 140 nM.

Q: What about the IC50 [2] of the same compound?
A: Its IC50 is 290 nM.

Q: What about the Activity (Caco-2 [18]) of the same compound?
A: The Activity was 9.6%.

Q: What about the Papp A→B at 3 h, 21 µM [19] of the same compound?
A: Its Papp A→B at 3 h, 21 µM is 2.32 ×10⁻⁶ cm/s.

Q: What about the CC50 at 96 h [3] of the same compound?
A: The CC50 at 96 h was > 10000 nM.

Q: And the half-life [11]?
A: The half-life was 40 h.

Q: And the Activity (Caco-2 [20])?
A: Its Activity is 6.1%.

Q: What about the Papp B→A at 3 h, 21 µM [21] of the same compound?
A: The Papp B→A at 3 h, 21 µM was 3.43 ×10⁻⁶ cm/s.

Q: And the “Ratio IC50” value [13]?
A: The value was 16.

Q: And the “Ratio IC50” value [14]?
A: Its value is 16.

Q: What about the CC50 at 120 h [4] of the same compound?
A: The CC50 at 120 h was > 10000 nM.

Q: Which IC50 [1] does the source give for `Cc1c(OC(=O)CCCCCNC(=O)[C@@H](N)C(C)C)cccc1C(=O)N[C@@H](CSc1ccccc1)[C@H](O)CN1C[C@H]2CCCC[C@H]2C[C@H]1C(=O)NC(C)(C)C.O=C(O)C(F)(F)F` here?
A: The IC50 was 94 nM.

Q: And the IC50 [2]?
A: The IC50 was 230 nM.

Q: And the CC50 at 96 h [3]?
A: The CC50 at 96 h was 10000 nM.

Q: What about the half-life [11] of the same compound?
A: Its half-life is 72 h.

Q: What about the “Ratio IC50” value [13] of the same compound?
A: Its value is 47.

Q: And the CC50 at 120 h [4]?
A: Its CC50 at 120 h is > 10000 nM.
